Read-outs that look alike come from different tables or passages of the source.
Legend:
RORγ = RORγ (Homo sapiens, UniProt P51449); test: RORγ Gal4 Reporter Gene Assay; format: cell-based
Method: Determination of a ligand mediated Gal4 promoter driven transactivation to quantify ligand binding to RORγ was performed as follows: DNA encoding three different RORγ protein fragments was cloned into vector pCMV-BD (Stratagene). Expression was under control of a CMV promoter and as fusion to the DNA-binding domain of the yeast protein GAL4. Other vectors used were pFR-Luc (Stratagene) as regulated reporter plasmid. pFR-Luc contains a synthetic promoter with five tandem repeats of the yeast GAL4 binding sites that control expression of the Photinus pyralis (American firefly) luciferase gene. In order to improve experimental accuracy the plasmid pRL-CMV was cotransfected. pRL-CMV contains the constitutive CMV promoter, controlling the expression of the Renilla reniformis luciferase.
The medium is supplemented with 10% fetal bovine serum, 0.1 mM nonessential amino acids, 1 mM sodium pyruvate, 1% Glutamax and 100 units Penicilin/[…] per mL at 37° C. in 5% CO2.
For the assay, […] were plated per well in 96 well plates in 100 μL per well, incubated over night at 37° C. in 5% CO2. […] About 4 h after addition of the transfection solution, fresh Minimal Essential Medium (MEM, same composition as used for plating cells, but without serum) was added. Then compound stocks, prediluted in MEM (same composition as used for plating cells) were added (final vehicle concentration not exceeding 0.1%).
All experiments were done at least in triplicates.

[1] = target: RORγ ligand binding domain (LBD) (Homo sapiens (Human), UniProt P51449); test: TR-FRET Activity Assay (ligand sensing assay, LANCE); conditions: for pIC50 (FRET): TR-FRET, interaction of RORγ-LBD with coactivator peptide
RORγ ligand binding domain (LBD), sequence (P51449 269-508): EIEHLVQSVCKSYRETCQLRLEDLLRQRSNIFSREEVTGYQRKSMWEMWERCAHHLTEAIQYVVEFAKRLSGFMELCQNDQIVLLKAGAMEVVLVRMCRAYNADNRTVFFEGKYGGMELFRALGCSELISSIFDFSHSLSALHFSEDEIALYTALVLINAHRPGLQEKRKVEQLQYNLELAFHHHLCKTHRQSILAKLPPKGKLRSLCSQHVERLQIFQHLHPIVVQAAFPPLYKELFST
Source text: The ligand-binding domain (LBD) of RORγ was expressed as fusion protein with GST in BL-21 (BL3) cells using the vector pDEST15. Cells were lysed by lysozyme-treatment and sonication, and the fusion proteins purified over glutathione sepharose (Pharmacia) according to the manufacturers instructions. For screening of compounds for their influence on the RORγ-peptide interaction, the LANCE technology (Perkin Elmer) was applied. This method relies on the binding dependent energy transfer from a donor to an acceptor fluorophor attached to the binding partner of interest. For ease of handling and reduction of background from compound fluorescence LANCE technology makes use of generic fluorophore labels and time resolved detection assays were done in a final volume of 25 μL in a 384 well plate, in a Tris-based buffer system (20 mM Tris-HCl pH 6.8; 60 mM KCl, 1 mM DTT; 5 mM MgCl2; 35 ng/μL BSA), containing 20-60 ng/well recombinantly expressed RORγ-LBD fused to GST, 200-600 nM N-terminally biotinylated peptide, 200 ng/well Streptavidin-xlAPC conjugate (Prozyme) and 6-10 ng/well Eu W1024-antiGST (Perkin Elmer). DMSO content of the samples was kept at 1%.
After generation of the Tris-based buffer system, the potentially RORγ modulating ligands were diluted. […] The LANCE signal was detected by a Perkin Elmer EnVision™ Multilabel Counter. […] Ligands that promote the complex formation induce a concentration-dependent increase in time-resolved fluorescent signal.
Y is the response. Y starts at Bottom and goes to Top with a sigmoidal shape.
This is identical to the “four parameter logistic equation”. The IC50 values are calculated using this equation.

[2] = firefly (FF) luciferase, 293T cells
[3] = renilla normalised (RENnorm) luciferase, 293T cells

RORγ, sequence (P51449 whole entry, looked up, the tested form may be a part): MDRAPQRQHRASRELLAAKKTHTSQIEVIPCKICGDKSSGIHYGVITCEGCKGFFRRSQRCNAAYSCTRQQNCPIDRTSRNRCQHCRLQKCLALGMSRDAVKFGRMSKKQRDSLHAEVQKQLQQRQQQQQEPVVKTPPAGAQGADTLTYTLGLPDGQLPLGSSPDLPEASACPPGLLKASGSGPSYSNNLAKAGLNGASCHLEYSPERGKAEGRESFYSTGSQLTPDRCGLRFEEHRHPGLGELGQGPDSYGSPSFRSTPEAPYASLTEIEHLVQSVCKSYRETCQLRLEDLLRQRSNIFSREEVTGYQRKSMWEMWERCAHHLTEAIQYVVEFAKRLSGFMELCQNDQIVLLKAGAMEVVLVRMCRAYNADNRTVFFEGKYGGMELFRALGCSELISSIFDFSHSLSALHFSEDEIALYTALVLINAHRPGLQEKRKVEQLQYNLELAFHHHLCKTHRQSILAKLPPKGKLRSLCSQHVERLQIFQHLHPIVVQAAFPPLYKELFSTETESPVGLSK

Compound	pIC50 (FF) (RORγ)	pIC50 (REN) (RORγ)	pIC50 (FRET) [1]	pIC50 (FF) (RORγ; [2])	pIC50 (REN) (RORγ; [3])	IC50 (RORγ; firefly (FF) luciferase, 293T cells, read-out: pIC50 (FF) (converted)) [nM]	IC50 (RORγ; renilla normalised (RENnorm) luciferase, 293T cells, read-out: pIC50 (REN) (converted)) [nM]	IC50 [1] [nM]
CC(C)(C)NS(=O)(=O)c1ccc(-c2sc(C(=O)NC3CCC(C(=O)O)C3)nc2CC2CCCCC2)c2ccccc12 (centres unmarked) [6/51]	6.3/8.4/8.4	6.3/8.4/8.4	6.3/8.4/8.4					
CC(C)(C)NS(=O)(=O)c1ccc(-c2sc(C(=O)N[C@H]3C[C@@H](S(C)(=O)=O)C3)nc2CC2CCCCC2)c(Cl)c1Cl [6/42]	7.2/8.2/8.4	7.2/8.2/8.4	7.2/8.2/8.4					
CC(C)(C)NS(=O)(=O)c1ccc(-c2sc(C(=O)NC3CCS(=O)(=O)CC3)nc2CC2CC2)c(Cl)c1Cl [6/35]	7.0/7.5/7.5	7.0/7.5/7.5	7.0/7.5/7.5					
CC(C)(C)NS(=O)(=O)c1ccc(-c2sc(S(N)(=O)=O)nc2CC2CCCCC2)c2ccccc12 [13/3]	6.6/7.5/7.7	6.6/7.5/7.7	6.6/7.5/7.7					
CC(C)(C)NS(=O)(=O)c1ccc(-c2sc(C(=O)N[C@H]3C[C@H](C(=O)O)C3)nc2CC2CCCCC2)c(Cl)c1C(F)(F)F [7/12]	6.2/8.0/8.2	6.2/8.0/8.2	6.2/8.0/8.2					
CC(C)(C)NS(=O)(=O)c1ccc(-c2sc(C(=O)NC3CCS(=O)(=O)CC3)nc2C2CCCCC2)c2ccccc12 [300/2]	6.9/8.2/8.2	6.9/8.2/8.2	6.9/8.2/8.2					
CC(C)(CO)NS(=O)(=O)c1ccc(-c2sc(C(=O)N3CC4(CCS(=O)(=O)CC4)C3)nc2CC2CCCCC2)c2ccccc12 [Example 14/1]	6.2/7.1/7.1	6.2/7.1/7.1	6.2/7.1/7.1					
O=C(c1nc(CC2CCCCC2)c(-c2ccc(S(=O)(=O)NC3CS(=O)(=O)C3)c3ccccc23)s1)N1CC2(CCS(=O)(=O)CC2)C1 [14/3]	6.6/6.4/6.4	6.6/6.4/6.4	6.6/6.4/6.4					
CC(C)(C)c1cc(-c2nc(C(N)=O)ncc2CC2CCCCC2)cc(C(C)(C)C)c1 [Example 206, 5-(Cyclohexylmethyl)-4-(3,5-di-tert-butylphenyl)pyrimidine-2-carboxamide]	5.9/6.3/6.2	5.9/6.3/6.2	5.9/6.3/6.2					
O=C(NC1CCS(=O)(=O)CC1)c1nc(CC2CCCCC2)c(-c2ccc(N3CCOCC3)c3ccccc23)s1 [7/27]	6.5/6.9/6.9	6.5/6.9/6.9	6.5					
CC(C)(C)c1cc(-c2sc(S(N)(=O)=O)nc2CC2CCCCC2)cc(C(C)(C)C)c1 [Example 4, 4-(Cyclohexylmethyl)-5-(3,5-di-tert-butylphenyl)thiazole-2-sulfonamide]	6.8/6.4/6.4	6.8/6.4/6.4	6.8/6.4/6.4					
CC(C)(C)NS(=O)(=O)c1ccc(-c2sc(C(=O)NCC3(C(=O)O)CCOCC3)nc2CC2CCCCC2)c(Cl)c1Cl [6/36]	6.3/7.4/7.4	6.3/7.4/7.4	6.3/7.4/7.4					
CC(C)(C)c1cc(-c2sc(C(=O)NC3CC(C(=O)O)C3)nc2CC2CCCCC2)nc(C2(C)CC2)n1 (centres unmarked) [19/12]			6.1	6.8	6.7			
CC(C)(C)NS(=O)(=O)c1ccc(-c2sc(C(=O)NC34CCC(C(=O)O)(CC3)CC4)nc2CC2CCCCC2)c2ccccc12 [6/8]	6.3/8.2/8.2	6.3/8.2/8.2	6.3/8.2/8.2					
CC(C)(C)NS(=O)(=O)c1ccc(-c2sc(C(=O)N[C@H]3C[C@H](C(=O)O)C3)nc2CC2CCCCC2)c2c1CCC2 [9/11]	6.6/8.5/8.5	6.6/8.5/8.5	6.6/8.5/8.5					
N#CC1(NS(=O)(=O)c2ccc(-c3sc(C(=O)N4CC5(CCS(=O)(=O)CC5)C4)nc3CC3CCCCC3)c3ccccc23)CC1 [Example 14, N-(1-Cyanocyclopropyl)-4-(4-(cyclohexylmethyl)-2-(7,7-dioxido-7-thia-2-azaspiro[3.5]nonane-2-carbonyl)thiazol-5-yl)naphthalene-1-sulfonamide]	6.7/7.6/7.7	6.7/7.6/7.7	6.7/7.6/7.7					

Compound	pIC50 (FF) (RORγ)	pIC50 (REN) (RORγ)	pIC50 (FRET) [1]	pIC50 (FF) (RORγ; [2])	pIC50 (REN) (RORγ; [3])	IC50 (RORγ; firefly (FF) luciferase, 293T cells, read-out: pIC50 (FF) (converted)) [nM]	IC50 (RORγ; renilla normalised (RENnorm) luciferase, 293T cells, read-out: pIC50 (REN) (converted)) [nM]	IC50 [1] [nM]
CC(C)(C)NS(=O)(=O)c1ccc(-c2sc(C(=O)NC3CCS(=O)(=O)CC3)nc2CC2CCCCC2)c2ccccc12 [6/6]	6.7/9.0/9.0	6.7/9.0/9.0	6.7/9.0/9.0					
CC(C)(C)NS(=O)(=O)c1ccc(-c2sc(C(=O)NC3CCS(=O)(=O)CC3)nc2CC2CCCCC2)c(Cl)c1Cl [6/43]	7.0/8.7/8.7	7.0/8.7/8.7	7.0/8.7/8.7					
CC(C)(C)NS(=O)(=O)c1ccc(-c2sc(C(=O)N3CC(C(C)(C)C(=O)O)C3)nc2CC2CCCCC2)c(Cl)c1Cl [6/37]	6.1/6.9/6.9	6.1/6.9/6.9	6.1					
CC(C)(C)NS(=O)(=O)c1ccc(-c2oc(C(=O)N3CC4(CCSCC4)C3)nc2CC2CCCCC2)c2ccccc12 [100/11]	6.8/7.1/7.3	6.8/7.1/7.3	6.8/7.1/7.3					
CC(C)(C)NS(=O)(=O)c1ccc(-c2sc(C(=O)NCC3(O)CCS(=O)(=O)CC3)nc2CC2CCCCC2)c2ccccc12 [6/5]	6.6/8.5/8.7	6.6/8.5/8.7	6.6/8.5/8.7					
CC(C)(C)c1cc(-c2sc(C(=O)N[C@H]3C[C@H](C(=O)O)C3)nc2CC2CCCCC2)cc(C(C)(C)C)n1 [8/8]						63.1	79.4	501
CCS(=O)(=O)c1ccc(CC(=O)Nc2nc(-c3ccccc3)c(Cc3ccccc3)s2)cc1 [Example 211, N-(5-Benzyl-4-phenylthiazol-2-yl)-2-(4-(ethylsulfonyl)phenyl)acetamide]			5.8	6.3	6.4			
CC(C)(C)NC(=O)c1ccc(-c2sc(C(=O)NC3CCS(=O)(=O)CC3)nc2CC2CCCCC2)c2ccccc12 [7/25]	6.2/6.6/6.5	6.2/6.6/6.5	6.2/6.6/6.5					
CC(C)(C)NS(=O)(=O)c1ccc(-c2sc(C(=O)N3CC4(CSC4)C3)nc2CC2CCCCC2)c(Cl)c1Cl [6/32]	6.9/8.0/8.2	6.9/8.0/8.2	6.9/8.0/8.2					
CN(C(=O)c1nc(CC2CCCCC2)c(-c2ccc(S(=O)(=O)NC(C)(C)C)c3ccccc23)o1)C1CCOCC1 [100/4]	6.6/7.1/7.3	6.6/7.1/7.3	6.6/7.1/7.3					
CC(C)(C)NS(=O)(=O)c1ccc(-c2oc(C(=O)NC3CCS(=O)(=O)CC3)nc2CC2CCCCC2)c2ccccc12 [100/6]	6.4/8.5/8.4	6.4/8.5/8.4	6.4/8.5/8.4					
CC(C)(C)c1cc(-c2sc(C(=O)NC3CC(C(=O)O)C3)nc2CC2CCCCC2)nc(C(C)(C)C)n1 (centres unmarked) [19/13]			6.5	6.9	6.9			
CC1CCN(C(=O)c2nc(C(=O)NCC(C)(C)O)sc2-c2ccc(S(=O)(=O)NC3(C)CC3)c3ccccc23)CC1 [304/27]	nt/7.6/7.5	nt/7.6/7.5						
CC1CCN(C(=O)c2nc(C(=O)N3CC4(CCOCC4)C3)sc2-c2ccc(S(=O)(=O)NC(C)(C)C)c3ccccc23)CC1 [304/17]	nt/7.2/7.2	nt/7.2/7.2						
CC(C)(C)NS(=O)(=O)c1ccc(-c2oc(C(=O)N3CC4(C3)CS(=O)(=O)C4)nc2CC2CCCCC2)c2ccccc12 [100/24]	nt/7.5/7.7	nt/7.5/7.7						
CC(C)(C)NS(=O)(=O)c1ccc(-c2nc(C(=O)NC3CCS(=O)(=O)CC3)sc2CC2CCCCC2)c2ccccc12 [25/2]	nt/9.0/9.0	nt/9.0/9.0						

Reference: patent publication US10301272B2, “Carboxamide or sulfonamide substituted thiazoles and related derivatives as modulators for the orphan nuclear receptor ROR[γ]” (Phenex Pharmaceuticals AG, priority 2012, dated 2019)
